Data as given in US20150290265A1, “COMPOSITION FOR TREATING METABOLIC DISORDERS” (PIRAMAL ENTERPRISES LIMITED, priority 2012, published 2015).

Key:
[1] = High fat diet (HFD) induced body weight gain study in mice; assay type: in vivo, C57BL/6J mice; conditions: Mean ± S.E.M.
Description: Male C57BL/6J mice (in-house; Central Animal Facility, Piramal Healthcare Limited, Goregaon, Mumbai, Maharashtra, India) were acclimatized with HFD (60% Kcal, D12492, Research Diets, USA) for two weeks. […] Orlistat (Biocon, India) was used as the standard drug and was administered orally at a dose of 15 mg/kg body weight, twice daily. A separate group of ten mice was fed a low fat diet (LFD, 10% kcal, D12450B, Research Diet, USA) as a normal control. Vehicle was administered to the HFD and LFD control groups at dose of 10 mL/kg body weight. The treatments were continued for a period of sixty days. Body weight and feed intake were monitored daily. The % change in body weight (% increase in body weight from day 1) and the cumulative feed intake data was calculated. On day sixtyone, blood samples (˜200 μL/mice) were collected in heparinised (50 IU/mL) micro-centrifuge tubes under isoflurane anesthesia. Plasma was separated by centrifugation at 10000 rpm at 4° C. for estimation of various plasma biochemistry parameters. The biochemistry analysis was performed on BS-400 autoanalyzer (Mindray, China). […] All the data was analyzed for statistical significance by one-way ANOVA followed by Dunnet's post-hoc test and values of P<0.05 were considered as significant. […]

human DGAT-1 enzyme = biological target: T1, human DGAT-1 enzyme (Homo sapiens, UniProt O75907); experiment: hDGAT-1 inhibition assay (microsomes from Sf9 cells, [14C]oleoyl-CoA incorporation); assay type: biochemical; conditions: 50 μg/mL
T1 construct: host or cells: Sf9 insect cells (baculovirus, Bac-to-Bac); microsomal fraction
T1 sequence (O75907 1-488): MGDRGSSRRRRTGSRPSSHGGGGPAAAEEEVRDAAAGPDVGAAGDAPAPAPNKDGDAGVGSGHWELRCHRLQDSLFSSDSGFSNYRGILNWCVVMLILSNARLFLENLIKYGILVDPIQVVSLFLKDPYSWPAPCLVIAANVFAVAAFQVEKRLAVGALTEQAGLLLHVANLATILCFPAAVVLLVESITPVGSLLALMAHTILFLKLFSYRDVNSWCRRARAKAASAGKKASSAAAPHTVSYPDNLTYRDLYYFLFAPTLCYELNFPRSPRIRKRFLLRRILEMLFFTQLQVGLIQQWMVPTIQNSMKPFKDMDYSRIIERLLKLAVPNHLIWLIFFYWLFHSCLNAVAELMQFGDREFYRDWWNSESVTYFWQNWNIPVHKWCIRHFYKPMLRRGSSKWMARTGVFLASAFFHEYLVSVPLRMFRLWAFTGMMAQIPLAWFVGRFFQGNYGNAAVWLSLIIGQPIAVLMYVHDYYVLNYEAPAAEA
Description: The DGAT-1 assay was designed using human DGAT-1 enzyme over expressed in Sf9 cell-line as described in the reference, European Journal of Pharmacology, 650, 663-672, 2011, the disclosure of which is incorporated by reference for the teaching of the assay.
Enzyme was diluted to a working concentration of 1 mg/mL in hDGAT-1 assay buffer, 2.5 μL of the working enzyme stock was used in hDGAT-1 assay (final concentration 25 μg/mL).
The test samples were prepared as follows. […] The working stock was prepared in hDGAT-1 assay buffer. 10 μL of working stock was added into 100 μL of assay mixture to obtain the final concentration of extracts at 50 μg/mL.
60 μL of substrate mix (as described above) was added to a total assay volume of 100 μL. The reaction was started by adding 2.5 μg hDGAT-1 containing microsomal protein and was incubated at 37° C. for 10 min. The reaction was stopped by adding 300 μL of alkaline ethanol stop solution mix (AESSM). […] 250 μL of the upper heptane was added into 4 mL of scintillation fluid and measured using a liquid scintillation counter (Packard; 1600CA) as disintegration per min (dpm) counts. The percentage inhibition was calculated with respect to the vehicle.

SCD-1 enzyme = biological target: T2, SCD-1 enzyme (Rattus norvegicus, UniProt P07308); experiment: SCD-1 inhibition assay (rat liver microsomes, 3H2O release); assay type: biochemical; conditions: 50 μg/mL
T2 construct: Male Sprague-Dawley rats (150-175 g) were fasted for two days and then fed on low fat diet for three days to induce SCD-1 activity; from tissue; host or cells: liver microsomes of male Sprague-Dawley rats
T2 sequence (P07308 1-358): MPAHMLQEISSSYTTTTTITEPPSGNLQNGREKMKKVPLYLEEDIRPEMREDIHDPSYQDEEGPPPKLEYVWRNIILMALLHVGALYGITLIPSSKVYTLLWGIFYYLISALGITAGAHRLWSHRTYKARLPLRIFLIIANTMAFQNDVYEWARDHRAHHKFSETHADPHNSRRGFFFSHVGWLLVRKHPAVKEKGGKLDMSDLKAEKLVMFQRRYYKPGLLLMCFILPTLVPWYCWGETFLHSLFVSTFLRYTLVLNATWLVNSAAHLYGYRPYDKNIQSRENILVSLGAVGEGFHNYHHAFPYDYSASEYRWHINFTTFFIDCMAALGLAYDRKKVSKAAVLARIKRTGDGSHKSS
Description: The assay was carried out according to the method described in reference, European Journal of Pharmacology, 618, 28-36, 2009, the disclosure of which is incorporated by reference for the teaching of the assay.
The SCD-1 enzyme was prepared from rat liver microsomes as described in PCT Publication Application WO2008/074835A1, the disclosure of which is incorporated herein by reference for the teaching of the assay.
Male Sprague-Dawley rats (150-175 g) were fasted for two days and then fed on low fat diet for three days to induce SCD-1 activity. The rats were then sacrificed and their livers were removed and placed on ice. The livers were finely chopped with scissors and then homogenized using a Polytron homogenizer in a homogenization buffer (150 mM KCl, 250 mM sucrose, 50 mM tris-HCl, pH 7.5, 5 mM EDTA, and 1.5 mM reduced glutathione) at 4° C. The homogenate was centrifuged at 1500×g for 20 min at 4° C. […]
The microsomes (62.5 μg) were treated with the test sample for 15 min. […] The filtrate containing ^3H2O was transferred to scintillation vials containing 4 mL of scintillation fluid and the cpm counts were measured using a liquid scintillation counter. The % inhibition was calculated with reference to the vehicle control.
The dose response was determined at concentrations of 25 μg/mL, 50 μg/mL and 100 μg/mL by serially diluting stock solutions of Extract of Example 2.

activity in the hDGAT-1 inhibition assay (conclusion) (human DGAT-1 enzyme) | inhibition at 50 µg/mL (human DGAT-1 enzyme; Table 1) [%] | activity in the SCD-1 inhibition assay (conclusion) (SCD-1 enzyme) | inhibition at 50 µg/mL (SCD-1 enzyme; Table 3) [%] | SMILES | Body weight (g, day 0) ([1]; day 0 (baseline)) [g] | Body weight (g, day 60) ([1]; day 60, Extract 500 mg/kg orally once daily, Orlistat 15 mg/kg orally twice daily) [g]
 |  |  |  | CCCCCCCCCCC[C@@H](C[C@@H]1OC(=O)[C@H]1CCCCCC)OC(=O)[C@H](CC(C)C)NC=O [Orlistat] | 26.4 ± 0.4 | 30.9 ± 0.9
active | 85 | active | 74.2 | C[C@@H]1O[C@@H](Oc2cc3c(=O)oc4c(O)c(O)cc5c(=O)oc(c2O)c3c45)[C@H](O)[C@H](O)[C@H]1O [The compound 1, Ellagic acid, 4-O-alpha-L-rhamnopyranoside] |  | 
